In patent publication US20140037661A1, “Wheat Antigens and Peptides for Diagnosis of Wheat Induced Hypersensitivity” (PHADIA AB, priority 2011, published 2014):

Tested on: serum-IgA from CD patients
Test: IgA reactivity ELISA to synthetic GG1 peptides
Type: binding, human
Conditions: 5 μg/ml coated; n=8 CD, 2 CD on gluten free diet, 3 healthy controls; FIG. 16
Procedure: ELISA plates were coated with 100 ul of 5 μg/ml of the 19 overlapping peptides, rGG1, alpha-gliadin peptide p56-75 and deamidated alpha gliadin peptide p56-75 (Q65E) and probed with serum-IgA from CD patients, CD patients on gluten free diet and healthy controls and detected using mouse anti-human IgA1/A2 and sheep anti-mouse IgG-HRP labelled antibody. Human serum albumin (HSA) was used as control (n=8 CD patients, 2 CD patients on gluten free diet and 3 healthy controls). […] Each of the synthetic GG1 peptides no.

## QVMRQQCCQQLAQIPQQLQCA (listed as Triticum aestivum) [compound 13]
  IgA reactivity of celiac disease patients' serum: specific IgA reactivity
